Test results taken from ChEMBL document CHEMBL1201862, “PubChem BioAssay data set” (2004).
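These data come from cells grown in 96-well plates and exposed to compound for 48 hours at five concentrations. Abbreviation: GI50, concentration required for 50% inhibition of growth.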 The source made the active and inactive calls. Cut-off read from the data, not from the text of the source: active = GI50 up to about 1.1 µM and inactive = higher.

Columns and labels:
Test in all cases: NCI tumour cell line growth inhibition, 48 h
SF-539 = tested on: SF-539
KM12 = tested on: KM12
IGROV-1 = tested on: IGROV-1
HT-29 = tested on: HT-29
SF-295 = tested on: SF-295
HOP-62 = tested on: HOP-62
MDA-MB-435 = tested on: MDA-MB-435
RPMI-8226 = tested on: RPMI-8226
MDA-N = tested on: MDA-N
UACC-62 = tested on: UACC-62
NCI-H522 = tested on: NCI-H522
SW-620 = tested on: SW-620
COLO 205 = tested on: COLO 205
BT-549 = tested on: BT-549
CCRF-CEM = tested on: CCRF-CEM
SR = tested on: SR
SK-MEL-2 = tested on: SK-MEL-2
U-251 = tested on: U-251
TK-10 = tested on: TK-10
NCI-H460 = tested on: NCI-H460

Measured: GI50

COc1cc(S(=O)(=O)Nc2ccc(-c3csc(/N=C\c4ccccc4O)n3)cc2)ccc1Cl
inactive: SF-539 55.7 µM | KM12 38.1 µM | IGROV-1 56 µM | HT-29 > 100 µM | SF-295 31.5 µM | HOP-62 65.3 µM | MDA-MB-435 36.1 µM | RPMI-8226 29.6 µM | MDA-N 33.9 µM | UACC-62 31.6 µM | NCI-H522 37.8 µM | SW-620 37.8 µM | COLO 205 41.2 µM | BT-549 43.7 µM | CCRF-CEM 22.3 µM | SR 31.6 µM | SK-MEL-2 29.2 µM

CCOP(=O)(OCC)Oc1c(OC)c2[nH]c(C(=O)OC)cc2c2c(C(=O)O)c[nH]c12
inactive: SF-539 > 100 µM | KM12 28.6 µM | U-251 > 100 µM | IGROV-1 > 100 µM | HT-29 > 100 µM | SF-295 > 100 µM | HOP-62 > 100 µM | TK-10 > 100 µM | MDA-MB-435 > 100 µM | MDA-N > 100 µM | UACC-62 > 100 µM | NCI-H460 > 100 µM | NCI-H522 > 100 µM | SW-620 > 100 µM | COLO 205 > 100 µM | BT-549 > 100 µM | CCRF-CEM > 100 µM | SR > 100 µM | SK-MEL-2 > 100 µM

C=C1C(=O)O[C@H]2C[C@@H]1[C@@H](O)[C@H](O)[C@@H](C)CCCC(C)=CCC[C@@]2(C)O
inactive: SF-539 15.2 µM | KM12 30.9 µM | U-251 24.7 µM | IGROV-1 24.3 µM | SF-295 54.7 µM | HOP-62 24.3 µM | TK-10 14.9 µM | MDA-MB-435 17.7 µM | RPMI-8226 5.05 µM | MDA-N 9.86 µM | UACC-62 16.6 µM | NCI-H460 23 µM | NCI-H522 4.24 µM | SW-620 > 10 µM | COLO 205 7.03 µM | BT-549 10 µM | CCRF-CEM > 100 µM | SR 39.7 µM | SK-MEL-2 21.6 µM

O=C1NNC2(C(=O)N1)c1ccccc1-c1ccccc12
inactive: SF-539 > 10 µM | KM12 > 10 µM | IGROV-1 > 10 µM | HT-29 > 10 µM | SF-295 > 10 µM | HOP-62 > 10 µM | TK-10 > 10 µM | MDA-MB-435 > 10 µM | RPMI-8226 > 10 µM | MDA-N > 10 µM | UACC-62 > 10 µM | NCI-H460 > 10 µM | NCI-H522 > 10 µM | SW-620 > 10 µM | COLO 205 > 10 µM | BT-549 > 10 µM | CCRF-CEM > 10 µM | SR > 10 µM

O=C(O)CCC(N/N=N/c1ccc(-c2nc3ccccc3[nH]2)cc1)C(=O)O (centres undefined)
inactive: SF-539 > 100 µM | KM12 37.4 µM | U-251 43.7 µM | IGROV-1 20.8 µM | HT-29 58.1 µM | SF-295 21.6 µM | HOP-62 48.8 µM | TK-10 > 100 µM | MDA-MB-435 52.8 µM | RPMI-8226 17.9 µM | MDA-N 56 µM | NCI-H460 31.8 µM | NCI-H522 > 100 µM | SW-620 > 100 µM | COLO 205 > 100 µM | BT-549 23.9 µM | CCRF-CEM 15 µM | SR 29.7 µM | SK-MEL-2 56.6 µM

CCn1c(SCC(=O)NNC(=S)NC)nc2ccccc2c1=O
inactive: SF-539 > 100 µM | KM12 > 100 µM | U-251 > 100 µM | IGROV-1 > 100 µM | SF-295 > 100 µM | HOP-62 > 100 µM | TK-10 49 µM | MDA-MB-435 > 100 µM | RPMI-8226 53 µM | MDA-N > 100 µM | UACC-62 > 100 µM | NCI-H460 18.6 µM | NCI-H522 > 100 µM | SW-620 > 100 µM | COLO 205 > 100 µM | BT-549 68.1 µM | CCRF-CEM > 100 µM | SR > 100 µM | SK-MEL-2 > 100 µM

Cn1c(S)nnc1-c1csc(-c2ccc(Cl)cc2)n1
inactive: SF-539 22.2 µM | KM12 > 100 µM | U-251 > 10 µM | IGROV-1 16 µM | HT-29 > 100 µM | SF-295 15.6 µM | HOP-62 15.4 µM | TK-10 20.4 µM | MDA-MB-435 > 100 µM | MDA-N 61 µM | UACC-62 23.9 µM | NCI-H460 21.3 µM | NCI-H522 19.4 µM | SW-620 32.6 µM | COLO 205 > 100 µM | BT-549 22.1 µM | CCRF-CEM > 100 µM | SR > 100 µM
